Reference: ChEMBL document CHEMBL5120798, “Design and synthesis of an N-benzyl 5-(4-sulfamoylbenzylidene-2-thioxothiazolidin-4-one scaffold as a novel NLRP3 inflammasome inhibitor” (Bioorg Med Chem Lett, 2022)
Activity calls are given as the source filed them. The calls are words filed in the database; no cut-off is given here.

Key:
Type in all cases: cell-based
[1] = target: NACHT, LRR and PYD domains-containing protein 3 (Mus musculus) (UniProt Q8R4B8); test: Inhibition of NLRP3 inflammasome activation in LPS-primed mouse BMDM cells assessed as reduction in LPS/ATP induced cleaved caspase 1 level in supernatant preincubated for 30 mins followed by LPS addition for 3 hrs prior to ATP addition for 30 mins by Western blot analysis; details: dose 4-10 µM, time 4.0 hrs, DDE = dose-dependent effect
[2] = target: NACHT, LRR and PYD domains-containing protein 3 (Mus musculus) (UniProt Q8R4B8); test: Inhibition of NLRP3 inflammasome activation in LPS-primed mouse BMDM cells assessed as reduction in LPS/ATP induced cleaved IL-1beta release in supernatant preincubated for 30 mins followed by LPS addition for 3 hrs prior to ATP addition for 30 mins by Western blot analysis; details: dose 4-10 µM, time 4.0 hrs, DDE = dose-dependent effect
[3] = target: NACHT, LRR and PYD domains-containing protein 3 (Homo sapiens) (UniProt Q96P20); test: Inhibition of NLRP3 inflammasome assembly in human THP-1 cells assessed as reduction in ASC oligomers formation
[4] = target: NACHT, LRR and PYD domains-containing protein 3 (Mus musculus) (UniProt Q8R4B8); test: Inhibition of NLRP3 inflammasome assembly in LPS/nigericin stimulated mouse BMDM cells assessed as reduction in NLRP3 specks; details: concentration not given here
[5] = target: NACHT, LRR and PYD domains-containing protein 3 (Mus musculus) (UniProt Q8R4B8); test: Inhibition of NLRP3 inflammasome activation in LPS-primed mouse BMDM cells assessed as reduction in LPS/ATP induced cleaved IL-1beta release in supernatant at 2 uM preincubated for 30 mins followed by LPS addition for 3 hrs prior to ATP addition for 30 mins by Western blot analysis; details: time 4.0 hrs

Chain of NACHT, LRR and PYD domains-containing protein 3 (Mus musculus) (Q8R4B8 whole entry, the tested form may be a part): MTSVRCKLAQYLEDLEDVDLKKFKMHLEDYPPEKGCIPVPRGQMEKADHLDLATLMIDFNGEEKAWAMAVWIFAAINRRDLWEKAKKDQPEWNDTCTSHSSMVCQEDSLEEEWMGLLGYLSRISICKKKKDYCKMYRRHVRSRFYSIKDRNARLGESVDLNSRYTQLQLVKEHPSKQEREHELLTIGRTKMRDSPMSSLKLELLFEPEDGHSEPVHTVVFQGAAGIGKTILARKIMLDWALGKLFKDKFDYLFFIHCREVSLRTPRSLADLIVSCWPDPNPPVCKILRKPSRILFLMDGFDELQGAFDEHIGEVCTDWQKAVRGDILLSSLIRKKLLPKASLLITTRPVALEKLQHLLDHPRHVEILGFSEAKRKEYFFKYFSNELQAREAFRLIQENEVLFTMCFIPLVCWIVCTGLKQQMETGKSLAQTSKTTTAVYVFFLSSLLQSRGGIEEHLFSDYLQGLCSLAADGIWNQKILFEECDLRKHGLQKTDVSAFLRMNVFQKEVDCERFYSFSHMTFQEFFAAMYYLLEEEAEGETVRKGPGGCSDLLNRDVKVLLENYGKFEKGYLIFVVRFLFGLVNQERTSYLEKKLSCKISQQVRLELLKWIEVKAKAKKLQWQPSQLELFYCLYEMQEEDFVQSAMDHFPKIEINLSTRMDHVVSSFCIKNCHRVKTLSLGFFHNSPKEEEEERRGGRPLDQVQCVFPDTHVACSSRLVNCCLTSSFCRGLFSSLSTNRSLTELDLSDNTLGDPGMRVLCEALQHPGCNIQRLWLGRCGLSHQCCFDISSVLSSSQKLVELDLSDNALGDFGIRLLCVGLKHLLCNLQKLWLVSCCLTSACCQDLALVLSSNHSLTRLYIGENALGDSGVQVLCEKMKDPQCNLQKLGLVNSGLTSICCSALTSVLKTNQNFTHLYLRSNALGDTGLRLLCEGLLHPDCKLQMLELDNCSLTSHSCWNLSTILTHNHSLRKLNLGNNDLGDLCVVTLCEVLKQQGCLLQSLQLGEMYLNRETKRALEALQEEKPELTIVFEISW
Chain of NACHT, LRR and PYD domains-containing protein 3 (Homo sapiens) (Q96P20 whole entry, the tested form may be a part): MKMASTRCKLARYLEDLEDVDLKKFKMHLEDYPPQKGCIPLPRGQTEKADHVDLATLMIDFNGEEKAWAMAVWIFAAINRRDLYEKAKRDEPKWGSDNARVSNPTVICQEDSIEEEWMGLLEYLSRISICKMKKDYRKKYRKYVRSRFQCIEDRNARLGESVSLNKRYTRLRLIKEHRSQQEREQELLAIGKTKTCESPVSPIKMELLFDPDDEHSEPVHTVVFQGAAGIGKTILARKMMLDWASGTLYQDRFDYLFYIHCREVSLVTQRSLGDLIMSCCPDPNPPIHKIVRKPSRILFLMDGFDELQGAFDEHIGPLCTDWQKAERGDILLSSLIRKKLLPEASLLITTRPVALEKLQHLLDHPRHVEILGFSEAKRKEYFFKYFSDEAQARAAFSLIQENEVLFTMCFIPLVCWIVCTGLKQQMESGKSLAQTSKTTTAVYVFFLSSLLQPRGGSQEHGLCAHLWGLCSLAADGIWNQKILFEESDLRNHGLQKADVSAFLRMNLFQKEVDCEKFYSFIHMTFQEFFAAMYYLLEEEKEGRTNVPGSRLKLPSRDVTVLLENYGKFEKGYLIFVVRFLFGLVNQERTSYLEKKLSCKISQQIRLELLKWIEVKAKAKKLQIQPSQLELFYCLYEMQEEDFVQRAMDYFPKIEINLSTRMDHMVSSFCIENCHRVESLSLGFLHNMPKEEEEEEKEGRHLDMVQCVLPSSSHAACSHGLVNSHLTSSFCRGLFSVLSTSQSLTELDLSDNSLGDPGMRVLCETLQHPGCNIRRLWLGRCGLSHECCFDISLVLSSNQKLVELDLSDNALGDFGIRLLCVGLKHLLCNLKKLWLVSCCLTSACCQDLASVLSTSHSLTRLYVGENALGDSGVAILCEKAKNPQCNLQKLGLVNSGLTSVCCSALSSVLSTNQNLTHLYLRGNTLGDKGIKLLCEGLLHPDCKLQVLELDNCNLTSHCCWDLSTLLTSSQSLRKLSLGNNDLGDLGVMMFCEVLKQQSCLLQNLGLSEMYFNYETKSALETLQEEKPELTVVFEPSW

| inhibition [1] | inhibition [2] | inhibition [3] | inhibition [4] [%] | inhibition [5] | SMILES |
| --- | --- | --- | --- | --- | --- |
| Dde | Dde | Active | 60 |  | COc1ccc(Cl)cc1CN1C(=O)/C(=C/c2ccc(S(N)(=O)=O)cc2)SC1=S |
|  |  |  |  | Active | COc1ccccc1CN1C(=O)/C(=C/c2ccc(S(N)(=O)=O)cc2)SC1=S |
|  |  |  |  | Active | CCCCOc1ccc(Cl)cc1CN1C(=O)/C(=C/c2ccc(S(N)(=O)=O)cc2)SC1=S |
| Dde | Dde | Active | 60 |  | COc1ccc(Cl)c(CN2C(=O)/C(=C/c3ccc(S(N)(=O)=O)cc3)SC2=S)c1 |
|  |  |  |  | Active | NS(=O)(=O)c1ccc(/C=C2\SC(=S)N(Cc3cccc(Cl)c3)C2=O)cc1 |
